# Laboratory results taken from patent US9163020B2, “Azaindole compounds, synthesis thereof, and methods of using the same” (Global Alliance for TB Drug Development, priority 2013, dated 2015).
# Like-named read-outs stand apart in the source and are kept apart here.
# Columns and labels:
# [1] = in vivo; details: Wistar, rat, in vivo
# Protocol: PK of azaindoles compounds was performed in mice (healthy and infected) and rats. Mice were pretreated with 100 mg/kg ABT two hours prior to the compound administration. PK data from healthy mice was used to design the dosing regimen for the efficacy study while, information from infected mice was used for the PK-PD analysis.
# All oral administration was performed as suspensions in 0.5% HPMC, and 0.1% Tween 80. […] All blood samples were collected via sapheneous vein into Microvette CB300® (Starstedt, Germany) tubes coated with Lithium-Heparin, and plasma was prepared from the collected blood by centrifugation.
# One mg/mL stock solution of each compound was prepared in Dimethylsulfoxide (DMSO) and diluted two-fold with acetonitrile. A sixteen point calibration curve was utilized for each analyte, and the standard curves ranged from 0.001 to 40 μg/mL. Plasma/BAL samples were precipitated by adding chilled acetonitrile (1:10 v/v) containing carbamazepine as internal standard (250 ng/mL). Samples were vortexed, and centrifuged at 4000 rpm for 30 min at 10° C. The resulting supernatant was mixed with mobile phase (50% acetonitrile in water with 0.1% formic acid). […] of sample was injected on to a liquid chromatographic system (Waters-ACQUTY UPLC) coupled to triple quadrupole mass spectrometer (Waters-ACQUTY-TQD; MS/MS). Samples were acquired in positive ion mode and detected by multiple reaction monitoring (MRM). Concentrations of the analyte were determined from a standard curve obtained by plotting known concentrations of the analyte against peak area ratios (analyte/internal standard peak response).
# PK analysis of the plasma concentration-time relationships were performed with WinNonlin Phoenix Software (version 6.2; Pharsight, USA). […] The maximum concentration of drug in plasma (Cmax), time to Cmax (Tmax), elimination half-life (t1/2), and AUC from time zero to infinity (AUC0-∞) were estimated. […] Minimum of three sample points in the terminal slope were used to estimate to calculate half-life.
# [2] = in vivo; details: BALB/c, mouse, po
# [3] = test system: Mycobacterium tuberculosis (Mtb) H37Rv ATCC 27294; assay: microbe, parasite or virus in culture; format: cell-based; details: Mycobacterium tuberculosis, read-out: Mtb MIC
# [4] = test system: panel of human targets and cardiac channels
# [5] = test system: CYP1A2, CYP2C9, CYP2C19, CYP2D6, CYP3A4; details: human
# [6] = in vitro; format: in vitro ADME; details: pH 7.4; mouse microsomes; read-out: Mo micrsomal Clint
# Protocol: 1 μM compound was incubated with 1 mg/mL of microsomes (Pooled HLM/MLM with 20 mg/ml protein cone.) at 37° C. in 166 μL of buffer (100 mM phosphate buffer, pH-7.4) containing 2 mM NADPH solution. 20 μL of incubation mix was quenched with 4 volumes chilled acetonitrile at different time points i.e. 0, 2, 5, 10, 20 and 30 min in a fresh 96 well plate. The quench plate was centrifuged at 4000 rpm for 15 min. 30 μL of supernatant was diluted to 300 μL with 50% acetonitrile in water and substrate depletion was analyzed using LC-MS/MS.
# [7] = test system: A549 human lung carcinoma cells; format: cell-based; details: human, 72 h
# Protocol: The in vitro cytotoxicity of compounds were measured against A549 human lung carcinoma cells as describedin Eakin et. al (2012). Briefly, A549 cells (ATCC) were grown in RPMI medium (GIBCO-BRL) containing 10% heat-inactivated fetal bovine serum (GIBCO-BRL) and 1 mM L-glutamine (GIBCO-BRL) at a density of 1,000 cells/well. After incubation of the cells with compound in a CO2 atmosphere at 37° C. for 72 hours, cell viability was determined following addition of […] of resazurin solution (Sigma), by measuring fluorescence (excitation at 535 nm, emission at 590 nm) using a fluorimeter.
# [8] = infected BALB/c mice, acute efficacy, +ABT
smiles,measurement,setting,value
"COc1ncnc(Cn2cc(C(=O)NCCF)c3ncccc32)c1C [Compound 3, N-(2-fluoroethyl)-1-((6-methoxy-5-methylpyrimidin-4-yl)methyl)-1H-pyrrolo[3,2-b]pyridine-3-carboxamide]",AUC(0-t),"[1]; iv, 0.5 mg/kg",1.6 ± 0.29 µM·h
same,C0h,"[1]; iv, 0.5 mg/kg",1.76 ± 0.42 µM
same,Vd,"[1]; iv, 0.5 mg/kg",1.05 ± 0.28 L/kg
same,clearance,"[1]; iv, 0.5 mg/kg",15.5 ± 3.21 mL/min/kg
same,half-life,"[1]; iv, 0.5 mg/kg",2.22 ± 2.51 h
same,AUC(0-inf),"[1]; po, 30 mg/kg",101 µM·h
same,Cmax,"[1]; po, 30 mg/kg",15 µM
same,F,"[1]; po, 30 mg/kg",96%
same,Tmax,"[1]; po, 30 mg/kg",2 h
same,half-life,"[1]; po, 30 mg/kg",2.01 h
same,AUC,[2],200 to 700 µM·h
same,AUC(0-inf),[2]; 30 mg/kg,252 ± 64 µM·h
same,Cmax,[2]; 30 mg/kg,32.8 ± 14.4 µM
same,half-life,[2]; 30 mg/kg,4.46 ± 0.16 h
same,MIC,[3]; Table 1,1.56 µM
same,MIC,[3]; Table 4,1.56 to 3.12 µM
same,Secondary pharmacology hits IC50,[4],No significant hits
same,in vitro safety profiling,[4],no major safety liabilities
same,CYP inhibition,[5],>50 µM
same,microsomal CLint,[6],104 µL/min/mg
same,MMIC (A549),[7],>100 µM
same,% T > MIC,[8]; multiple oral doses 50 mg/kg,58%
same,% fT > MIC,[8]; multiple oral doses 50 mg/kg,23%
same,% T > MIC,[8]; multiple oral doses 100 mg/kg,66%
same,% fT > MIC,[8]; multiple oral doses 100 mg/kg,41%
